Measured values reported in patent US20250257034A1, “INDOLE DERIVATIVES AS SEROTONERGIC AGENTS USEFUL FOR THE TREATMENT OF DISORDERS RELATED THERETO” (priority 2023, published 2025).

Tests used:
Assay type in all cases: in vitro ADME
[1] = Human liver microsomes stability; settings: human liver microsomes; for half-life at 2 μM / microsomal CLint at 2 μM: 2 μM compound, 0.5 mg/mL; for microsomal CLint at 2 μM: read-out: CLint (μL/min/mg protein); for CLint scaled at 2 μM: read-out: Scaled-up CLint
Description: (§1) The objective of this study was to estimate in vitro metabolic stability of exemplary compounds of Formula (I) or a pharmaceutically acceptable salt, solvate, and/or prodrug thereof in pooled human, male rat, and male mouse liver microsomes. The concentrations of compounds in reaction systems were evaluated by LC-MS/MS for estimating the stability in pooled human, male rat, and male mouse liver microsomes. The in vitro intrinsic clearances of test compounds were determined as well.
(§2) A master solution in the “Incubation Plate” containing phosphate buffer, ultra-pure H2O, MgCl2 solution and liver microsomes was made according to Table 33. The mixture was pre-warmed at 37° C. water bath for 5 minutes.
(§3) 40 μL of 10 mM nicotinamide adenine dinucleotide phosphate (NADPH) solution was added to each well. The final concentration of NADPH was 1 mM. The negative control samples were prepared by replacing NADPH with 40 μL of ultra-pure H2O. Samples were prepared in duplicate. Negative controls were prepared in singlet.
(§4) The reaction was started with the addition of 4 μL of 200 μM exemplary test compounds of the disclosure or control compounds to each master solution to get the final concentration of 2 μM. This study was performed in duplicate.
(§5) Aliquots of 50 μL were taken from the reaction solution at 0, 15, 30, 45, and 60 minutes. The reaction solutions were stopped by the addition of 4 volumes of cold methanol with IS (100 nM alprazolam, 200 nM imipramine, 200 nM labet alol and 2 μM ketoprofen). Samples were centrifuged at 3,220 g for 40 minutes. Aliquot of 90 μL of the supernatant was mixed with 90 μL of ultra-pure H2O and then was used for LC-MS/MS analysis.
(§6) LC/MS analysis was performed for all samples from this study using a Shimadzu liquid chromatograph separation system equipped with degasser DGU-20A5R; solvent delivery unit LC-30AD; system controller SIL-30AC; column oven CTO-30A; CTC Analytics HTC PAL System. Mass spectrometric analysis was performed using a Triple Quad™ 5500 instrument.
(§7) All calculations were carried out using Microsoft Excel. Peak area ratios of test compound to internal standard (listed in the below table) were determined from extracted ion chromatograms.
(§8) All calculations were carried out using Microsoft Excel. Peak areas were determined from extracted ion chromatograms. The slope value, k, was determined by linear regression of the natural logarithm of the remaining percentage of the parent drug vs. incubation time curve.
(§9) The in vitro half-life (in vitro t1/2) was determined from the slope value:
(§10) Conversion of the in vitro t1/2(min) into the in vitro intrinsic clearance (in vitro CLint, in μL/min/mg proteins) was done using the following equation (mean of duplicate determinations): […]
(§11) A master solution in the “Incubation Plate” containing phosphate buffer, ultra-pure H2O, MgCl2 solution and liver microsomes was made according to Table 63. The mixture was pre-warmed at 37° C. water bath for 5 minutes.
(§12) 40 μL of 10 mM NADPH solution was added to each well. The final concentration of NADPH was 1 mM. The negative control samples were prepared by replacing NADPH with 40 μL of ultra-pure H2O. Samples were prepared in duplicate. Negative controls were prepared in singlet.
(§13) Conversion of the in vitro t1/2(min) into the in vitro intrinsic clearance (in vitro C Lt, in μL/min/mg proteins) was done using the following equation (mean of duplicate determinations): […]

[2] = Rat liver microsomes stability; settings: rat liver microsomes; for half-life at 2 μM / CLint scaled at 2 μM / microsomal CLint at 2 μM: male, pooled liver microsomes; for half-life at 2 μM / microsomal CLint at 2 μM: 2 μM compound, 0.5 mg/mL; for CLint scaled at 2 μM: read-out: Scaled-up CLint; for microsomal CLint at 2 μM: rat, read-out: CLint (μL/min/mg protein)
Description: as §1, §2, §3, §4, §5, §6, §7, §8, §9, §10, §11, §12, §13

[3] = Mouse liver microsomes stability; settings: mouse liver microsomes; for microsomal CLint at 2 μM / half-life at 2 μM / CLint scaled at 2 μM: male, pooled liver microsomes; for microsomal CLint at 2 μM: mouse, read-out: CLint (μL/min/mg protein); for microsomal CLint at 2 μM / half-life at 2 μM: 2 μM compound, 0.5 mg/mL; for CLint scaled at 2 μM: read-out: Scaled-up CLint
Description: as §1, §2, §3, §4, §5, §6, §7, §8, §9, §10, §11, §12, §13

SMILES	Predicted hepatic CL [1] [mL/min/kg]	half-life at 2 μM [1] [min]	microsomal CLint at 2 μM [1] [µL/min/mg]	Remaining Percentage (%) ([1]; With Cofactors, 0 min)	Remaining Percentage (%) ([1]; With Cofactors, 30 min)	Remaining Percentage (%) ([1]; With Cofactors, 60 min)	Remaining Percentage (%) ([1]; Without Cofactors, 0 min)	Remaining Percentage (%) ([1]; Without Cofactors, 30 min)	Remaining Percentage (%) ([1]; Without Cofactors, 60 min)	CLint scaled at 2 μM [1] [mL/min/kg]	half-life at 2 μM [2] [min]	CLint scaled at 2 μM [2] [mL/min/kg]	microsomal CLint at 2 μM [2] [µL/min/mg]	Predicted hepatic CL [2] [mL/min/kg]	Remaining Percentage (%) ([2]; With Cofactors, 0 min)	Remaining Percentage (%) ([2]; With Cofactors, 30 min)	Remaining Percentage (%) ([2]; With Cofactors, 60 min)	Remaining Percentage (%) ([2]; Without Cofactors, 0 min)	Remaining Percentage (%) ([2]; Without Cofactors, 30 min)	Remaining Percentage (%) ([2]; Without Cofactors, 60 min)	also measured
CN(CCOC(F)F)CCc1c[nH]c2ccccc12 [Compound I-130, N-(2-(1H-Indol-3-yl)ethyl)-2-(difluoromethoxy)-N-methylethan-1-amine]	18.58	9.6	144	100.00	11.46	0.75	100.00	99.47	94.15	181	< 4.51	> 550	> 307	>50.17	100.00	0.00	0.00	100.00	105.21	103.65	microsomal CLint at 2 μM [3]: 173 µL/min/mg; half-life at 2 μM [3]: 8.03 min; CLint scaled at 2 μM [3]: 755 mL/min/kg; Predicted hepatic CL [3]: 80.41 mL/min/kg; Remaining Percentage (%) ([3]; With Cofactors, 0 min): 100.00%; Remaining Percentage (%) ([3]; With Cofactors, 30 min): 7.52%; Remaining Percentage (%) ([3]; With Cofactors, 60 min): 0.87%; Remaining Percentage (%) ([3]; Without Cofactors, 0 min): 100.00%; Remaining Percentage (%) ([3]; Without Cofactors, 30 min): 95.65%; Remaining Percentage (%) ([3]; Without Cofactors, 60 min): 104.89%
COc1ccc2[nH]cc(CCN3CC[C@@H](OC)C3)c2c1 [(R) I-66, (R)-5-methoxy-3-(2-(3-methoxypyrrolidin-1-yl)ethyl)-1H-indole]	4.37	314	4.42	100.00	98.13	87.59	100.00	100.00	98.15	5.54	17.8	139	77.7	39.53	100.00	22.22	9.71	100.00	102.61	100.00	microsomal CLint at 2 μM [3]: 14.1 µL/min/mg; half-life at 2 μM [3]: 98.5 min; CLint scaled at 2 μM [3]: 61.5 mL/min/kg; Predicted hepatic CL [3]: 36.55 mL/min/kg; Remaining Percentage (%) ([3]; With Cofactors, 0 min): 100.00%; Remaining Percentage (%) ([3]; With Cofactors, 30 min): 72.95%; Remaining Percentage (%) ([3]; With Cofactors, 60 min): 65.58%; Remaining Percentage (%) ([3]; Without Cofactors, 0 min): 100.00%; Remaining Percentage (%) ([3]; Without Cofactors, 30 min): 104.20%; Remaining Percentage (%) ([3]; Without Cofactors, 60 min): 100.00%
COc1ccc2[nH]cc(CCN3CC[C@@H](OC(F)F)C3)c2c1 [(R) I-67, (R)-3-(2-(3-(Difluoromethoxy)pyrrolidin-1-yl)ethyl)-5-methoxy-1H-indole]	15.34	29.3	47.3	100.00	47.22	24.23	100.00	79.21	71.91	59.3	10.5	236	132	44.73	100.00	15.35	1.93	100.00	91.21	80.30	microsomal CLint at 2 μM [3]: 57.4 µL/min/mg; half-life at 2 μM [3]: 24.1 min; CLint scaled at 2 μM [3]: 251 mL/min/kg; Predicted hepatic CL [3]: 66.25 mL/min/kg; Remaining Percentage (%) ([3]; With Cofactors, 0 min): 100.00%; Remaining Percentage (%) ([3]; With Cofactors, 30 min): 43.11%; Remaining Percentage (%) ([3]; With Cofactors, 60 min): 17.88%; Remaining Percentage (%) ([3]; Without Cofactors, 0 min): 100.00%; Remaining Percentage (%) ([3]; Without Cofactors, 30 min): 103.14%; Remaining Percentage (%) ([3]; Without Cofactors, 60 min): 109.43%
